Data reported in patent publication US20240279223A1, “5-OXO-PYRIDO[2,3-D]PYRIDAZIN-6(5H)-YL ACETAMIDES” (JANSSEN PHARMACEUTICA NV, priority 2021, published 2024).
pEC50, pIC50: −log10 of the molar value.

Legend:
IL-1β = experiment: PBMC assay: IL-1β release after LPS stimulation; format: cell-based; details: human PBMCs, 30 min preincubation, 100 ng/ml LPS for 6 hrs, supernatant, MSD technology
Method: (§1) Peripheral venous blood was collected from healthy individuals and human peripheral blood mononuclear cells (PBMCs) were isolated from blood by Ficoll-Histopaque (Sigma-Aldrich, A0561) density gradient centrifugation. After isolation, PBMCs were stored in liquid nitrogen for later use. Upon thawing, PBMC cell viability was determined in growth medium (RPMI media supplemented with 10% fetal bovine serum, 1% Pen-Strep and 1% L-glutamine). Compounds were spotted in a 1:3 serial dilution in DMSO and diluted to the final concentration in 30 μl medium in 96 well plates (Falcon, 353072). PBMCs were added at a density of 7.5×10^4 cells per well and incubated for 30 min in a 5% CO2 incubator at 37° C. LPS stimulation was performed by addition of 100 ng/ml LPS (final concentration, Invivogen, tirl-smlps) for 6 hrs followed by collection of cellular supernatant and the analysis of IL-1β (μM) and TNF cytokines levels (μM) via MSD technology according to manufacturers' guidelines (MSD, K 151A0H).
(§2) The IC50 values (for IL-1β) and EC50 values (TNF) were obtained on compounds of the invention/examples, and are depicted in the following table: […]

TNF = experiment: PBMC assay: TNF cytokine levels after LPS stimulation; format: cell-based; details: human PBMCs, 30 min preincubation, 100 ng/ml LPS for 6 hrs, supernatant, MSD technology
Method: as §1, §2

SMILES | pIC50 (IL-1β; Homo sapiens, PBMC) | pEC50 (TNF; Homo sapiens, PBMC) | pIC50 (IL-1β) | pEC50 (TNF)
CCc1nn(CC(=O)N[C@H]2C[C@@](C)(O)C2)c(=O)c2ccc(C(C)C)nc12 [Compound 1] | 6.28 | 4.97 | – | –
CCc1nn(CC(=O)Nc2ccncn2)c(=O)c2ccc(C(C)C)nc12 [Compound 2] | 5.83 | < 4.70 | – | –
CCc1nn(CC(=O)Nc2ccncn2)c(=O)c2ccc(C3CC3)nc12 [Compound 3] | 5.35 | < 4.70 | – | –
CCc1nn(CC(=O)N[C@H]2C[C@@](C)(O)C2)c(=O)c2ccc(C3CC3)nc12 [Compound 4] | 6.43 | – | – | –
CCc1nn(CC(=O)Nc2ccc3nncn3c2)c(=O)c2ccc(C3CC3)nc12 [Compound 5] | 6.49 | 4.89 | – | –
CCc1ccc2c(=O)n(CC(=O)N[C@H]3C[C@@](C)(O)C3)nc(CC)c2n1 [Compound 6] | 6.11 | 4.75 | – | –
CCc1nn(CC(=O)Nc2ccc3nncn3c2)c(=O)c2ccc(OC)nc12 [Compound 7] | 5.17 | < 4.70 | – | –
CC(C)c1nn(CC(=O)Nc2ccc3nncn3c2)c(=O)c2ccc(C(C)(F)F)nc12 [Compound 8] | 6.92 | 4.77 | – | –
CN(C)c1nn(CC(=O)Nc2ccc3nncn3c2)c(=O)c2ccc(C(F)(F)F)nc12 [Compound 9] | 6.49 | < 4.70 | – | –
CN(C)c1nn(CC(=O)Nc2ccc3nncn3c2)c(=O)c2ccc(C(C)(F)F)nc12 [Compound 10] | 6.52 | < 4.70 | – | –
CC(C)c1nn(CC(=O)Nc2ccc3cnn(C(=O)OC(C)(C)C)c3c2)c(=O)c2ccc(C(F)(F)F)nc12 [Compound 11, tert-butyl 6-(2-(8-isopropyl-5-oxo-2-(trifluoromethyl)pyrido[2,3-d]pyridazin-6(5H)-yl)acetamido)-1H-indazole-1-carboxylate] | 6.28 | < 4.70 | – | –
CC(C)c1nn(CC(=O)NC2CCOCC2)c(=O)c2ccc(C(F)(F)F)nc12 [Compound 12] | 6.11 | < 4.70 | – | –
CC(C)c1nn(CC(=O)Nc2ccc3nncn3c2)c(=O)c2ccc(C(F)(F)F)nc12 [Compound 13] | 7.00 | < 4.70 | – | –
CC(C)c1nn(CC(=O)N[C@H]2C[C@@](C)(O)C2)c(=O)c2ccc(C(F)(F)F)nc12 [Compound 14] | 7.30 | < 4.70 | – | –
CC(C)c1nn(CC(=O)Nc2ccc3nccn3c2)c(=O)c2ccc(C(F)(F)F)nc12 [Compound 15] | 6.41 | < 4.70 | – | –
CC(C)c1nn(CC(=O)Nc2ccc(=O)n(C)c2)c(=O)c2ccc(C(F)(F)F)nc12 [Compound 16] | 6.48 | < 4.70 | – | –
Cc1cc(NC(=O)Cn2nc(C(C)C)c3nc(C(F)(F)F)ccc3c2=O)ccn1 [Compound 17] | 6.32 | 4.78 | – | –
CC(C)c1nn(CC(=O)Nc2ccnnc2)c(=O)c2ccc(C(F)(F)F)nc12 [Compound 18] | 6.39 | 4.90 | – | –
CC(C)c1nn(CC(=O)Nc2cncnc2)c(=O)c2ccc(C(F)(F)F)nc12 [Compound 19] | 7.22 | 4.93 | – | –
CC(C)c1nn(CC(=O)Nc2ccc3nncn3n2)c(=O)c2ccc(C(F)(F)F)nc12 [Compound 20, N-([1,2,4]triazolo[4,3-b]pyridazin-6-yl)-2-(8-isopropyl-5-oxo-2-(trifluoromethyl)pyrido[2,3-d]pyridazin-6(5H)-yl)acetamide] | 5.53 | < 4.70 | – | –
CC(C)c1nn(CC(=O)Nc2ccc3nncn3n2)c(=O)c2ccc(C(C)(F)F)nc12 [Compound 21] | 7.15 | 5.54 | – | –
CN(C)c1nn(CC(=O)Nc2ccc3nncn3n2)c(=O)c2ccc(C(F)(F)F)nc12 [Compound 22] | – | – | 6.82 | 5.23
CN(C)c1nn(CC(=O)Nc2ccc3nncn3n2)c(=O)c2ccc(C(F)(F)F)nc12 [Compound 23] | – | – | 6.47 | < 4.70
CN(C)c1nn(CC(=O)Nc2ccc3nncn3n2)c(=O)c2ccc(C(C)(F)F)nc12 [Compound 24] | – | < 4.70 | 6.52 | –
CN(C)c1nn(CC(=O)Nc2ccc3nncn3n2)c(=O)c2ccc(C(C)(F)F)nc12 [Compound 25] | – | – | 6.12 | < 4.70
CC(C)c1nn(CC(=O)Nc2ccc3cn[nH]c3c2)c(=O)c2ccc(C(F)(F)F)nc12 [Compound 26, N-(1H-indazol-6-yl)-2-(8-isopropyl-5-oxo-2-(trifluoromethyl)pyrido[2,3-d]pyridazin-6(5H)-yl)acetamide] | 6.77 | < 4.70 | – | –
